The numbers were not newly measured in patent US20120172427A1, “(Z)-2-CYANO-3-HYDROXY-BUT-2-ENOIC ACID-(4'-TRIFLUOROMETHYLPHENYL)-AMIDE TABLET FORMULATIONS WITH IMPROVED STABILITY” (SANOFI, priority 2009, published 2012), which cites them from elsewhere.

The target of data set [1] is dihydroorotate dehydrogenase (Homo sapiens, UniProt Q02127). To be noted: Bruneau et al., Biochem. J. 1998.
Data set [2] has as its system immune cells and cell lines. To be noted: wide variety of immune cells and cell lines; literature.

dihydroorotate dehydrogenase, sequence (Q02127 whole entry): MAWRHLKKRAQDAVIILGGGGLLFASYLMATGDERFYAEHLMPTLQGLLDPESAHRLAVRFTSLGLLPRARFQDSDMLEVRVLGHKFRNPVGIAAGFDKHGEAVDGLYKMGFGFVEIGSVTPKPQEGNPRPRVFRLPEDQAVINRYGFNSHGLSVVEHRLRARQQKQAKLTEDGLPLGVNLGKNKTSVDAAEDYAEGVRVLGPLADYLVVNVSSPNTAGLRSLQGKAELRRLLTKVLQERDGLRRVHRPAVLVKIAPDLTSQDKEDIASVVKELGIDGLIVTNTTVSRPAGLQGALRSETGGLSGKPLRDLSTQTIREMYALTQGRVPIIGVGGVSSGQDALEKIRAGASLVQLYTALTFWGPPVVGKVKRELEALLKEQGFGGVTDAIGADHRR

Turning to `C/C(O)=C(\C#N)C(=O)Nc1ccc(C(F)(F)F)cc1` [Teriflunomide, (Z)-2-cyano-3-hydroxy-but-2-enoic acid-(4′-trifluoromethylphenyl)-amide], the “inhibition of dihydroorotate dehydrogenase” value in data set [1] is “inhibits”. The antiproliferative effects entry in data set [2] is given as “antiproliferative effects”.
